Values of other authors, collected in US11147800B2 (Race Oncology Ltd., priority 2013, dated 2021).
Counter-ions that a name gives are not always drawn.

Experiments:
[1] = test system: telomerase-expressing cells and ALT-positive cell lines
L1210 leukemia cells = details: typical of inhibition of DNA topoisomerase II
[2] = preclinical
[3] = test system: hepatic microsomal enzymes; details: in vitro
[4] = not given; remark: listed apart in the source
[5] = not given; remark: listed apart in the source
[6] = not given; remark: listed apart in the source
[7] = not given; remark: listed apart in the source
[8] = test system: colon 26, Lewis lung, Ridgway osteosarcoma, B16, Lieberman plasma cell, P388 or L1210 cancer cells
[9] = biological target: glycogen synthase kinase-3β (GSK-3β) (Homo sapiens, UniProt P49841)
glycogen synthase kinase-3β (GSK-3β), sequence (P49841 whole entry, species assumed): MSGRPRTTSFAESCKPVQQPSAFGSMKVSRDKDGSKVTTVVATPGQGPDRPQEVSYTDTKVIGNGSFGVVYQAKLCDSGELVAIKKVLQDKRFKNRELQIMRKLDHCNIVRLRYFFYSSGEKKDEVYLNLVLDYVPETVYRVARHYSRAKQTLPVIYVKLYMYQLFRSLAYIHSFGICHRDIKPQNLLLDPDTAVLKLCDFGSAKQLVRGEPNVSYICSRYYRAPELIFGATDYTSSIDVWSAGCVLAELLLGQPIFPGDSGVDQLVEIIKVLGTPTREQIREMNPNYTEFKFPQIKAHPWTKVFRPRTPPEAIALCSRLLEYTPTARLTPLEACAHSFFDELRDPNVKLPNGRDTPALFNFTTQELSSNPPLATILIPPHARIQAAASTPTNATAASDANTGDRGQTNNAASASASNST

[10] = local injection
[11] = single dose study, the last study
[12] = single dose study, triphasic elimination, second study

For C(=N\NC1=NCCN1)/c1cccc2cc3c(/C=N/NC4=NCCN4)cccc3cc12 [Formula (III)], the “DNA damage response (γH2AX foci partially co-localized at the telomere)” value [1] is given as “consistently provokes a DNA damage response”.
In the case of C(=NNC1=NCCN1)c1c2ccccc2c(C=NNC2=NCCN2)c2ccccc12 [bisantrene, 9,10-anthracenedicarboxaldehyde bis[(4,5-dihydro-1H-imidazol-2-yl)hydrazine] dihydrochloride], the DNA strand breaks (L1210 leukemia cells) is listed as “induce protein-associated DNA strand breaks”, the Brain levels [2] is listed as “extremely low” and the “tissues with the highest concentration (in descending order)” value [2] is listed as “kidney, liver, gallbladder, spleen, lung, and heart”. The “substrate for hepatic microsomal enzymes” value [3] was “substrate”, the cardiotoxicity in animals (animals) was “not cardiotoxic” and the toxic findings (dogs and monkeys, high doses) was “leukopenia, anorexia, diarrhea, injection site necrosis, enterocolitis, muscle degeneration, and pulmonary edema”. For the same compound, the “minimal effective in vivo dose for macrophage activation” value (macrophages) was 25 mg/kg, the “urinary excretion of the dose” value ([4]; 72-hr infusion study, in 24 hr) was 4.6% and the “triphasic elimination, first phase (given as clearances)” value [4, 11] was 0.1 h. For the same compound, the “triphasic elimination, second phase (given as clearances)” value [4, 11] was 1.9 h, the “triphasic elimination, third phase (given as clearances)” value [4, 11] was 43.9 h and the t½α [4, 12] was 3 min. For the same compound, the t½β [4, 12] was 1 h, the t½γ [4, 12] was 8 h and the “cross resistance with adriamycin and mitoxantrone” value (Human tumor cells) was “lack of cross resistance”. For the same compound, the “sensitivity in in vitro colony-forming assays” value (Human tumor cells; breast, ovarian, renal, small cell and non-small cell lung, lymphoma, AML, melanoma, gastric, adrenal, head and neck cancer) was “sensitive”, the “local tissue toxicity if extravasated” value ([5]; human, in vivo) was “potent vesicant” and the patients reporting malaise ([5]; human, in vivo) was “up to one-half of patients”. For the same compound, the “cardiotoxicity compared with mitoxantrone or doxorubicin” value ([5]; phase III trial) was “less cardiotoxic”, the “major dose-limiting toxic effect” value ([6]; in vivo) was “leukopenia” and the DLT ([6]; phase I doses between 190-430 mg/m^2 q3w) was “neutropenia”. The platelet aggregation (Human Platelets) was “inhibit platelet aggregation”, the “activity in metastatic breast cancer” value ([7]; Phase II, heavily pretreated patients) was “active” and the “activity in phase I clinical trials” value ([7]; hepatocellular cancer and hypernephroma (one patient each), lymphoma, myeloma, melanoma, renal cancer, bladder and lung tumors) was “showed activity”. The “activity in refractory malignant melanoma” value ([7]; phase II) was “inactive”, the “activity in human colon cancer” value ([7]; tested in vitro or in vivo (phase II advanced colorectal cancer)) was “inactive” and the “antitumor activity in murine tumor models” value ([8]; P-388 leukemia and B-16 melanoma) was “antitumor activity”. The “activity in cancer models, parenteral” value ([8]; i.v., i.p. or s.c., colon 26, Lewis lung, Ridgway osteosarcoma, B16, Lieberman plasma cell, P388 or L1210) was “effective” and the “activity in cancer models, oral” value ([8]; orally) was “inactive”.
In the case of CN1C(=O)/C(=C2/C(=O)Nc3ccccc32)c2ccccc21 [meisoindigo], the “concentration for inhibition of GSK-3β” value [9] is listed as 5 to 50 nM.
For O=C([O-])O.[Na+] [sodium bicarbonate], the bisantrene extravasation necrosis [10] is given as “blocked”.
